The record followed here is patent US9856480B2, “Dnazyme for silencing the expression of EGFR” (DCB-USA LLC, priority 2013, dated 2018).

Format in all cases: cell-based, human
One series relates to wild-type EGFR. The series is described as follows: Western immunoblotting of EGFR expression and downstream signaling in wild-type EGFR cell lines. The note with it: A549 and CL1-5 cells, 100 nM. How it is done:
A549, CL1-5, H1975, or CL97 was seeded onto 6-well at 3×10^5 cells/well and cultured overnight. Then, cells were separately treated with 100 nM DzControl or DzT790M-1 with lipofectamine 2000 (Invitrogen). The transfected A549 and CL1-5 cells were serum-starved for 24 h and treated with 100 ng/ml of EGF at 37° C. for 15 min. 72 h after transfection, cell were collected for analysis. Cells were washed twice by ice-cold PBS and then total protein was extracted by RIPA buffer with protease inhibitor (Roche). 50 μg of total protein from the supernatants were boiled for 5 min at 95° C. The samples were resolved on 10% SDS-PAGE gel and transferred onto nitrocellulose membranes. EGFR expression and downstream signaling were detected by using primary antibodies specific to human pEGFR(Y1068) (Cell signaling), tEGFR (Santa Cruz), pSTAT3 (Y705) (Cell signaling), tSTAT3 (Cell signaling), pAKT (5473)(Cell signaling), tAKT (Santa Cruz), pERK (T202/Y204) (Cell signaling), tERK (Santa Cruz), and cleaved PARP (Cell signaling) at 1:1000 dilution and β-actin (Santa Cruz) at 1:10000 dilution, respectively. Secondary antibodies against rabbit IgG or mouse IgG was used at 1:5000 dilution. Protein bands on membrane were visualized by exposure to the chemiluminescence substrate.
EGFR belongs to receptor tyrosine kinases. The binding of its extracellular ligands triggers receptor dimerization, tyrosine residues phosphorylation, and downstream signaling activation including signal transducer and activator of transcription 3 (STAT3), Akt, extracellular signal regulated kinases (ERK), and others. To examine the effects of DzT790M on protein expression level of EGFR and its downstream signaling, western immunoblotting was performed on DzT790M transfected cells. A549, CL1-5, H1975, or CL97 was seeded onto 6-well at 3×10^5 cells/well and cultured overnight. Then, cells were separately treated with 100 nM DzControl or DzT790M-1 with lipofectamine 2000 (Invitrogen). The transfected A549 and CL1-5 cells were serum-starved for 24 h and treated with 100 ng/ml of EGF at 37° C. for 15 min. 72 h after transfection, cell were collected for analysis. Cells were washed twice by ice-cold PBS and then total protein was extracted by RIPA buffer with protease inhibitor (Roche). […] Also, activation of downstream STAT3, AKT, and ERK signaling after EGF treatment were not inhibited by DzT790M-1 or DzT790M-2 transfection.
CL1-5 (EGFR wild-type) or H1975 (EGFR T790M) were seeded onto 6-well at 3×10^5 cells/well and cultured overnight. […] The transfected CL1-5 cells were serum-starved for 24 h and treated with 100 ng/ml of EGF at 37° C. for 15 min. 72 h after transfection, cells were collected for western blotting analysis following the above mentioned procedure. […]

Series [1] relates to A549 cells (EGFR wild-type). The series can be described thus: Cell proliferation assay (cell counting). The note with it: 100 nM, 0-72 h after transfection. How it is done:
(§1) A549, CL1-5, H1975, or CL97 was seeded onto 6-well and cultured overnight. Then, cells were separately treated with 100 nM DzControl or DzT790M-1 with lipofectamine 2000 (Invitrogen). Cells were trypsinized and counted at 0 h, 24 h, 48 h, or 72 h after transfection.
(§2) EGFR and downstream signaling pathway regulates important cell functions including cell proliferation and survival. In order to examine functional effects of DzT790M-1 on cell survival, the number of cells was counted after DzControl or DzT790M-1 transfection respectively. In A549 and CL1-5 cells (EGFR wild-type), the rate of cell proliferation or the cell number was not different between DzControl and DzT790M-1 transfected group (FIGS. 4A and 4B). In H1975 and CL97 cells (EGFR T790M), DzControl transfected cells were continued to grow after transfection when the number of DzT790M-1 treated cells was reduced (FIGS. 4C and 4D). In order to figure out whether DzT790M-1 treated cells undergoes cell apoptosis, immunoblotting against cleaved form of PARP and immunostaining of annexin V and PI were performed. The cleavage of PARP is caused by increased activity of caspase-3 and serves as a marker for cell apoptosis. […] While only 3.6% of cells underwent apoptosis and 12.4% of cells were dead in DzControl transfected H1975 cells, 18.6% of cells were detected as apoptotic cells and 32.6% of cells were annexin V and PI double positive in DzT790M-1 treated group (FIG. 4F).

Series [2] has as its system CL1-5 cells (EGFR wild-type). The series is described as follows: Cell proliferation assay (cell counting). The note with it: 100 nM, 0-72 h after transfection. On the procedure:
as §1, §2

For a further series, the system named is CL97 cells (EGFR T790M). The series can be described thus: Cell proliferation assay (cell counting). The note with it: 100 nM, 0-72 h after transfection. On the procedure: as §1, §2
The test system of the next series is H1975 cells (EGFR T790M). The series can be described thus: Cell proliferation assay (cell counting). The note with it: 100 nM, 0-72 h after transfection. How it is done: as §1, §2
A further series deals with CL97 cells. The series can be described thus: Apoptosis assay (annexin V and PI, flow cytometry). The note with it: 100 nM, 48 h. On the procedure: (§3) H1975 or CL97 was seeded onto 10-cm dish and cultured overnight. Then, cells were separately treated with 100 nM DzControl or DzT790M-1 with lipofectamine 2000 (Invitrogen). After 48 h, cells were collected, double stained by annexin V and PI, and analyzed by flow cytometry following the protocol of Dead cell apoptosis kit from manufacturer (Invitrogen).
On the technique in general: In flow cytometry, cells or beads pass a laser one at a time.

The next series concerns H1975 cells. The series is described as follows: Apoptosis assay (annexin V and PI, flow cytometry). The note with it: 100 nM, 48 h. On the procedure: as §3

Strand notation (5' to 3'): a small letter for the sugar, then the base; units joined by * are phosphorothioate-linked, units joined directly phosphodiester-linked; [ ] holds rarer units or linkages, { } end groups; capitals alone tell only the bases. d = 2'-deoxy (DNA)

Consider “DzT790M-1: 10-23 DNAzyme against EGFR T790M mRNA, arms 10/4, phosphorothioate ends: AGCTGCATGAGGCTAGCTACAACGAGAGC (DNA dA*dGdCdTdGdCdAdTdGdAdGdGdCdTdAdGdCdTdAdCdAdAdCdGdAdGdAdG*dC; further chemistry not fully specified)”, for which, in the series on wild-type EGFR (100 ng/ml EGF 15 min), the “activation of downstream STAT3, AKT, and ERK signaling after EGF treatment” value is reported as “not inhibited”. For the same substance, the “protein level of EGFR compared to DzControl group” value with wild-type EGFR (72 h after transfection) is reported as “did not decreased”. Also, in series [1], the “rate of cell proliferation or cell number vs DzControl transfected group” value is “not different”. Besides, in series [2], the “rate of cell proliferation or cell number vs DzControl transfected group” value was “not different”. In the series on CL97 cells (EGFR T790M), the “number of cells after transfection” value is “reduced”. In addition, the “number of cells after transfection” value in the series with H1975 cells (EGFR T790M) is “reduced”. Moreover, in the series on CL97 cells, the “percentage of apoptotic cells in whole cell population” value is given as 27.4% and the “percentage of dead cells in whole cell population” value came to 25.1%. Besides, in the series on H1975 cells, the apoptotic cells is recorded as 18.6%; the “dead cells (annexin V and PI double positive)” value is listed as 32.6%.
